From patent publication US20190343932A1, “NOVEL TREATMENTS” (ENZYMATICA AB, priority 2014, published 2019)
Where a SMILES comes first, the peptide text is derived from it. The star is where a group is joined. pNA = O=[N+]([O-])c1ccc(N*)cc1; Cbz = O=C(OCc1ccccc1)*

Columns and labels:
Assay in all cases: Activity assay to determine kinetic constants
Assay type in all cases: biochemical
[1] = molecular target: Atlantic cod (Gadus morhua) trypsin I (SEQ ID NO: 1) variant EZA-002, D217S, T218N, S69K (Gadus morhua, UniProt P16049, D236S/S88K/T237N)
Text: (§1) The following polypeptides were obtained or produced: • (a) Wldtype trypsin I purified from Atlantic cod (“WT-Tryp” or “wildtype”); • (b) Recombinantly expressed wildtype trypsin I of Atlantic cod (SEQ ID NO:1, “R-Tryp”); and • (c) Thirty-eight different mutated versions of trypsin I of Atlantic cod (i.e. mutated sequences of SEQ ID NO:1).
(§2) Polypeptides corresponding to the wildtype amino acid sequence of trypsin I from Atlantic cod and thirty-eight mutated versions thereof were produced using the methods described in Example C.
(§3) Activation of recombinant enzymes (approximately 0.01 mg/ml) was achieved by adding wild type trypsin (0.2 U/ml) at room temperature and incubate for 24 hours. The mixture was made in 20 mM Tris-HCl, 1 mM CaCl2, 50% glycerol, pH 8.0 to a final volume of 200 μl.
(§4) The substrate (Gly-Pro-Arg) was used at concentrations 0.005-0.15 mM in assay buffer containing 1% DMSO. 245 μL of substrate solutions were pipetted into a 96-well plate. The reaction was started by adding 5 μL of the sample mixture (above) and monitored at 410 nm in a SpectraMax plate reader. Kinetic measurement was performed every minute of a continuous 15-min run.

[2] = molecular target: Atlantic cod (Gadus morhua) trypsin I (SEQ ID NO: 1) variant EZA-003, K133T (Gadus morhua, UniProt P16049, K152T)
Text: as §1, §2, §3, §4

[3] = molecular target: Atlantic cod (Gadus morhua) trypsin I (SEQ ID NO: 1) variant EZA-004, K133L (Gadus morhua, UniProt P16049, K152L)
Text: as §1, §2, §3, §4

[4] = molecular target: Atlantic cod (Gadus morhua) trypsin I (SEQ ID NO: 1) variant EZA-005, K133V (Gadus morhua, UniProt P16049, K152V)
Text: as §1, §2, §3, §4

[5] = molecular target: Atlantic cod (Gadus morhua) trypsin I (SEQ ID NO: 1) variant EZA-006, K133E (Gadus morhua, UniProt P16049, K152E)
Text: as §1, §2, §3, §4

[6] = molecular target: Atlantic cod (Gadus morhua) trypsin I (SEQ ID NO: 1) variant EZA-007, N80T (Gadus morhua, UniProt P16049, N99T)
Text: as §1, §2, §3, §4

[7] = molecular target: Atlantic cod (Gadus morhua) trypsin I (SEQ ID NO: 1) variant EZA-008, I81L (Gadus morhua, UniProt P16049, I100L)
Text: as §1, §2, §3, §4

[8] = molecular target: Atlantic cod (Gadus morhua) trypsin I (SEQ ID NO: 1) variant EZA-009, L165G, P202Y (Gadus morhua, UniProt P16049, L184G/P221Y)
Text: as §1, §2, §3, §4

[9] = molecular target: T1, Atlantic cod (Gadus morhua) trypsin I, recombinant wildtype EZA-001 (no mutations), SEQ ID NO: 1 (Gadus morhua, UniProt P16049)
T1 construct: mature trypsin from MEEDK-zymogen
T1 sequence (P16049 20-241): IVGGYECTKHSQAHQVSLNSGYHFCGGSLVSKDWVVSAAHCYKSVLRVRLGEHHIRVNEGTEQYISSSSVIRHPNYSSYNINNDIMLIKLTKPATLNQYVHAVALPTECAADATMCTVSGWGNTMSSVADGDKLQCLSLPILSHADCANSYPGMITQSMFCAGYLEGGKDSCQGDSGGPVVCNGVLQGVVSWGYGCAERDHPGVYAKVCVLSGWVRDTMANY
Text: as §1, §2, §3, §4

[10] = molecular target: T2, Atlantic cod (Gadus morhua) trypsin I, wildtype, purified from Atlantic cod (WT-Trp), SEQ ID NO: 1 (Gadus morhua, UniProt P16049); conditions: reference
T2 sequence (P16049 20-241): T1 sequence (P16049 20-241)
Text: as §1, §2, §3, §4

Chain of Atlantic cod (Gadus morhua) trypsin I (SEQ ID NO: 1) variant EZA-007, N80T (P16049 20-241 N99T): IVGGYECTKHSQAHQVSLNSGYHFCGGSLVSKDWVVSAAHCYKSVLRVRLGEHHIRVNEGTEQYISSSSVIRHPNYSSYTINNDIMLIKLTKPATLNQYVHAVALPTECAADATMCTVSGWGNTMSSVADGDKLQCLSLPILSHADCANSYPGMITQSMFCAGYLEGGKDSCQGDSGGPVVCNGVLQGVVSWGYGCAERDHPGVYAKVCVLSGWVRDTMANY
Chain of Atlantic cod (Gadus morhua) trypsin I (SEQ ID NO: 1) variant EZA-005, K133V (P16049 20-241 K152V): as the sequence (P16049 20-241 N99T) above, with T80N, K133V counted along it
Chain of Atlantic cod (Gadus morhua) trypsin I (SEQ ID NO: 1) variant EZA-008, I81L (P16049 20-241 I100L): as the sequence (P16049 20-241 N99T) above, with T80N, I81L counted along it
Chain of Atlantic cod (Gadus morhua) trypsin I (SEQ ID NO: 1) variant EZA-004, K133L (P16049 20-241 K152L): as the sequence (P16049 20-241 N99T) above, with T80N, K133L counted along it
Chain of Atlantic cod (Gadus morhua) trypsin I (SEQ ID NO: 1) variant EZA-006, K133E (P16049 20-241 K152E): as the sequence (P16049 20-241 N99T) above, with T80N, K133E counted along it
Chain of Atlantic cod (Gadus morhua) trypsin I (SEQ ID NO: 1) variant EZA-009, L165G, P202Y (P16049 20-241 L184G/P221Y): as the sequence (P16049 20-241 N99T) above, with T80N, L165G, P202Y counted along it
Chain of Atlantic cod (Gadus morhua) trypsin I (SEQ ID NO: 1) variant EZA-003, K133T (P16049 20-241 K152T): as the sequence (P16049 20-241 N99T) above, with T80N, K133T counted along it
Chain of Atlantic cod (Gadus morhua) trypsin I (SEQ ID NO: 1) variant EZA-002, D217S, T218N, S69K (P16049 20-241 S88K/D236S/T237N): as the sequence (P16049 20-241 N99T) above, with S69K, T80N, D217S, T218N counted along it

Structure (SMILES): N=C(N)NCCC[C@H](NC(=O)[C@@H]1CCCN1C(=O)CNC(=O)OCc1ccccc1)C(=O)Nc1ccc([N+](=O)[O-])cc1 [Gly-Pro-Arg, Cbz-Gly-Pro-Arg-p-nitroanilide] (Cbz-Gly-Pro-Arg-pNA)
- Vmax, relative to WT-Trp [1]: 99
- Vmax, relative to WT-Trp [2]: 96
- Vmax, relative to WT-Trp [3]: 82
- Vmax, relative to WT-Trp [4]: 96
- Vmax, relative to WT-Trp [5]: 98
- Vmax, relative to WT-Trp [6]: 99
- Vmax, relative to WT-Trp [7]: 95
- Vmax, relative to WT-Trp [8]: 98
- Vmax, relative to WT-Trp [9]: 99
- Vmax (Kcat), relative to WT-Trp [10]: 100
